# Patent publication US11091781B2, “Carbon fixation systems and methods” (priority 2015, dated 2021)
# Legend:
# R. eutropha [1] = format: cell-based, Ralstonia eutropha; conditions: spot assay at different isopropanol concentrations, FIG. 25
# Description: (§1) The procedure for spot assays was performed by diluting 100 μL of culture grown under different conditions by 1:10 in fresh minimal medium, which was vortexed. Three to four serial 10-fold dilutions were made and 2 μL of each dilution was spotted on rich broth agar plates and allowed to dry. Plates were typically grown for 2 days at 30° C. before imaging. The half maximal inhibitory concentration (IC50) was estimated based on the comparison at 1/100 dilution. The areas of colonies at certain conditions were then compared with that of control samples.
# FIG. 25 is a photograph of cell cultures taken for different isopropanol concentration.
# [2] = molecular target: membrane-bound hydrogenases in R. eutropha (Cupriavidus necator, UniProt P31891); conditions: H2 as substrate; cited from earlier work
# Sequence of membrane-bound hydrogenases in R. eutropha (P31891 1-603 limits assumed): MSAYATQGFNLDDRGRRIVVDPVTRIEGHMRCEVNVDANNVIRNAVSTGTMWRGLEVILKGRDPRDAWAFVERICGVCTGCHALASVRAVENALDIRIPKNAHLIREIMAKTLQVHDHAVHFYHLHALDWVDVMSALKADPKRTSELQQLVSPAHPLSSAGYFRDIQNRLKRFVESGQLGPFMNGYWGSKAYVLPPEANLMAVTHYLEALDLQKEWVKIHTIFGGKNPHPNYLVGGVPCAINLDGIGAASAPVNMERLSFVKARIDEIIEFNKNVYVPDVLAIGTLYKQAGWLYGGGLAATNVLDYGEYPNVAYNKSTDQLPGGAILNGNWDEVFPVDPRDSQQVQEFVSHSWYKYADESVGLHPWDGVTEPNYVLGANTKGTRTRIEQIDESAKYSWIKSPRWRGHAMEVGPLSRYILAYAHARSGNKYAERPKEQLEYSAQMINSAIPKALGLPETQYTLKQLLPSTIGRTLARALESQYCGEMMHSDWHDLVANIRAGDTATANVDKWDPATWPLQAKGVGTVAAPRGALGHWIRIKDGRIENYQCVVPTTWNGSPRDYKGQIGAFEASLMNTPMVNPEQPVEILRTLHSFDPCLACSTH
# Sequence of membrane-bound hydrogenases in R. eutropha (P31892 44-360 partner): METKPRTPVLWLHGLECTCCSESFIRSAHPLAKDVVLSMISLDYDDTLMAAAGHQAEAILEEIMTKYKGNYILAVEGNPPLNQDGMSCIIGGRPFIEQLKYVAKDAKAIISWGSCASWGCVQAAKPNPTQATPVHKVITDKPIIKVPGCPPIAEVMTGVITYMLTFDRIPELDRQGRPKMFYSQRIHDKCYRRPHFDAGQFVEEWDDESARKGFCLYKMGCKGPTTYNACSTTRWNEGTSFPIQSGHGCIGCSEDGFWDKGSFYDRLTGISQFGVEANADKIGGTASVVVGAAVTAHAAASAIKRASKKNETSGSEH
# R. eutropha [3] = test: Spot assay of R. eutropha in the presence of Co^2+; format: cell-based, Ralstonia eutropha; conditions: estimated by comparison at 1/100 dilution, FIG. 18, read-out: half maximal inhibitory concentration, IC50 (concentration of Co^2+ toxic to R. eutropha)
# Description: as §1
# FIG. 17 presents, cyclic voltammograms of Co^2+ in the phosphate buffer (pH=7), a pre-wave to the catalytic water-splitting current corresponds to the oxidation of Co^2+ to Co^3+, which drives deposition of the catalyst. […] As noted previously, the self-healing property of CoPi alloy is derived from this interplay of the potential at which OER occurs vs. the potential at which the catalyst deposits. In concert, the Co—P and CoPi catalysts maintain extremely low concentrations of Co^2+ in solution through activity derived from the self-healing process. Inductively coupled plasma mass spectrometry (ICP-MS) analysis of a Co-P|CoPi catalysts system (Eappl=2.2 V) confirm that sub-μM levels of Co^2+ are present in solution after 24 h. […]
# [4] = system: H16 and ROS-resistant BC4 strains of R. eutropha; test: Spot assay of ROS tolerance with paraquat as ROS-inducer; format: cell-based, Ralstonia eutropha; conditions: BC4 vs wild-type H16, FIG. 26
# Description: as §1
# A ROS-resistant variant of R. eutropha, evolved from a reactor including a stainless steel CoPi water-splitting electrode pair after 11 consecutive days of operation at an applied voltage potential of 2.3 V with a H2O2 generation rate of ˜0.6 μM/min. […] However, there was minimal difference noted in ηelec for the current reactor systems using the Co-P|CoPi electrode pairs, confirming minimal concentrations of ROS in the reactors. Of course, it should be understood that BC4 may be used in any reactor system, and may also be beneficial for use in helping systems achieve a high ηelec where ROS are present in larger concentrations.
smiles,measurement,setting,value
CC(C)O [isopropanol],tolerance of R. eutropha towards isopropanol,R. eutropha [1],demonstrates tolerance
"[HH] [H2, hydrogen]",Michaelis constant,[2],about 6 μM
[Co+2] [Co^2+],IC50,R. eutropha [3],~25 µM
C[n+]1ccc(-c2cc[n+](C)cc2)cc1 [paraquat],IC50 of paraquat for BC4 compared with wild type,[4],almost one order of magnitude higher than that of wild type
